{
  "source": "paper PMC8333062",
  "about": "“Chemical tools for epichaperome-mediated interactome dysfunctions of the central nervous system” (Nature Communications, 2021)",
  "key": {"[1]": {"test_system": "stress HSP90 from MDA-MB-468 cancer cells", "experiment": "Binding to stress HSP90", "parameters": "species or system human", "details": "study protocol; read-out: affinity (EC50) for stress HSP90"}, "[2]": {"experiment": "Metabolic stability in liver microsomes", "format": "in vitro ADME, human", "details": "No inhibitor", "method": "All samples were assayed in duplicate.\nTo identify cytochrome P450 enzymes responsible for PU-HZ151’s metabolism in human liver microsomes the following procedure was followed. Phosphate buffer (100 mM, pH 7.4) was prepared monthly and stored at 4 °C. Frozen stock solutions of human liver microsomes (Life Technologies; Cat# HMMCPL) were used once after thawing and were not refrozen. NADPH stock solution (50 mM) in distilled water was prepared fresh daily. Stock solutions of PU-HZ151 (1 mM in DMSO) and CYP inhibitors, furafylline (10 mM) for CYP1A2, tranylcypromine (2 mM) for CYP2A6, ketoconazole (1 mM) for CYP3A, troleandomycin (20 mM) for CYP3A4, orphenadrine (50 mM) for CYP2B6, montelukast (3 mM) for CYP2C8, sulfaphenazole (10 mM) for CYP2C9, benzylnirvanol (1 mM) for CYP2C19, quinidine (1 mM) for CYP2D6, and 1-aminobenzotriazole (1 mM) for all the P450 enzymes were stored at −20 °C. The stock solutions of these P450 inhibitors were prepared in DMSO. General procedure: PU-HZ151 (1 µM) was incubated with human liver microsomes (0.5 mg protein mL^−1), 2.5 mM NADPH, 3.3 mM magnesium chloride, and chemical inhibitors (various concentrations) in phosphate buffer (100 mM, pH 7.4) at 37 °C for up to 60 min. […] The concentration of the chemical inhibitors used in the assay were furafylline (10 μM), tranylcypromine (2 μM), ketoconazole (1 μM), troleandomycin (20 μM), orphenadrine (50 μM), montelukast (3 μM), sulfaphenazole (10 μM), benzylnirvanol (1 μM), quinidine (1 μM), and 1-aminobenzotriazole (1 mM) for all the P450 enzymes. Timing of the reactions was started following the addition of NADPH/magnesium chloride mix and PU-HZ151. Time-dependent chemical inhibitors (furafylline, troleandomycin, orphenadrine, and 1-aminobenzotriazole) were preincubated with human microsomes in the presence of NADPH and magnesium chloride for 15 min before the addition of PU-HZ151 and timing of reactions was started after addition of PU-HZ151. […]"}, "HepG2 cells (Pgp +ve)": {"test_system": "HepG2 cells (Pgp +ve)", "experiment": "Cell viability, ATP levels 72 h", "format": "cell-based, human", "details": "for Cell viability (ATP levels): HEPG2", "method": "Supplementary Fig. 15: PU-HZ151 activity in cells is unaffected by Pgp overexpression. a Two Pgp-positive cells lines, Kasumi-1 and HepG2, were tested for epichaperome-positivity. β-Actin, loading control. b ATP levels in cell treated for 72 h with 0 to 1 µM PU-HZ151. Data are presented as means ±s.e.m. of three experimental repeats. Control, vehicle (DMSO) treated cells. c Western blot analysis of aberrant signaling pathway inhibition by […]\n(also on this page, place not known: MDA‐MB-468ASPC1Kasumi Hep G2 ATP levels %Control MDA‐MB-468ASPC1Kasumi 1Hep G2 β-Actin HSP90α Native-PAGE SDS PAGE 100- β-Actin 1)"}, "CYP2C19": {"target": "T1, CYP2C19 (Homo sapiens, UniProt P33261)", "T1 construct": "PU-HZ151 (1 µM) was incubated with human liver microsomes (0.5 mg protein mL^−1); tissue Life Technologies HMMCPL; host or cells: human liver microsomes", "T1 sequence (P33261 whole entry)": "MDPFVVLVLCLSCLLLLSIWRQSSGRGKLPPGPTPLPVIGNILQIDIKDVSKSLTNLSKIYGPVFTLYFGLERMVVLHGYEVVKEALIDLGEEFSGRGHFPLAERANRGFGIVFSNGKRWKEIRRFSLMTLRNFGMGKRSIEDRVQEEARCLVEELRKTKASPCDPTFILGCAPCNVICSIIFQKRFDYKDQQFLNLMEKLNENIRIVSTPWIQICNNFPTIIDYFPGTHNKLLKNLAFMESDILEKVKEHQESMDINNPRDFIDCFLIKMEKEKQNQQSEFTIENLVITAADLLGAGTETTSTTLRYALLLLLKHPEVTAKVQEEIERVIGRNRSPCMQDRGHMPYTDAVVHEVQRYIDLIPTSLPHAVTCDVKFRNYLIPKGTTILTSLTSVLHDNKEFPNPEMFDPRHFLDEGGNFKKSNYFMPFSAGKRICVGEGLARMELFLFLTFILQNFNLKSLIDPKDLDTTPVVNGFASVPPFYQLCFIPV", "experiment": "Cytochrome P450 profiling, benzylnirvanol", "format": "in vitro ADME", "details": "for % PU-HZ151 remaining: Benzylnirvanol", "method": "To identify cytochrome P450 enzymes responsible for PU-HZ151’s metabolism in human liver microsomes the following procedure was followed. Phosphate buffer (100 mM, pH 7.4) was prepared monthly and stored at 4 °C. Frozen stock solutions of human liver microsomes (Life Technologies; Cat# HMMCPL) were used once after thawing and were not refrozen. NADPH stock solution (50 mM) in distilled water was prepared fresh daily. […] The stock solutions of these P450 inhibitors were prepared in DMSO. […] The concentration of the chemical inhibitors used in the assay were furafylline (10 μM), tranylcypromine (2 μM), ketoconazole (1 μM), troleandomycin (20 μM), orphenadrine (50 μM), montelukast (3 μM), sulfaphenazole (10 μM), benzylnirvanol (1 μM), quinidine (1 μM), and 1-aminobenzotriazole (1 mM) for all the P450 enzymes. Timing of the reactions was started following the addition of NADPH/magnesium chloride mix and PU-HZ151. Time-dependent chemical inhibitors (furafylline, troleandomycin, orphenadrine, and 1-aminobenzotriazole) were preincubated with human microsomes in the presence of NADPH and magnesium chloride for 15 min before the addition of PU-HZ151 and timing of reactions was started after addition of PU-HZ151. […] Following brief vortexing and centrifugation, a 200 µL aliquot of the supernatant was transferred to a tube, and 10 µL of haloperidol (1 µg mL^−1) as internal standard was added. Following brief vortexing and centrifugation, 50 µL of supernatant was added to a 96-well plate for subsequent LC-MS/MS analysis. PU-HZ151 was similarly tested as above in the absence of CYP inhibitors for comparative purposes. All samples were assayed in duplicate. […] This was similarly performed for incubations of PU-HZ151 performed in the absence of CYP inhibitor."}},
  "note": "Several values for one entry are separate records, joined by “and”; a condition that tells them apart may be missing. Equal values may be shown once.",
  "data": [
    {"smiles": "CC(C)(C)CNCCn1c(Sc2cc3c(cc2I)OCO3)nc2c(N)ncnc21", "note": "[Compound 85]", "values": [
      {"measurement": "EC50", "setting": "[1]", "value": 6.9, "unit": "nM"},
      {"measurement": "% PU-HZ151 remaining", "setting": "[2]; 15 min", "value": 52.7, "unit": "%"},
      {"measurement": "% PU-HZ151 remaining", "setting": "[2]; 30 min", "value": 34.7, "unit": "%"},
      {"measurement": "% PU-HZ151 remaining", "setting": "[2]; 60 min", "value": 17.2, "unit": "%"},
      {"measurement": "activity in Pgp-overexpressing vs Pgp-low cells", "setting": "HepG2 cells (Pgp +ve)", "value": "comparable activity"},
      {"measurement": "Cell viability (ATP levels)", "setting": "HepG2 cells (Pgp +ve); 1.95312 nM, replicates, listed as PU-HZ151, 0.00195312 µM", "value": "87.8706 and 102.165"},
      {"measurement": "Cell viability (ATP levels)", "setting": "HepG2 cells (Pgp +ve); 3.90625 nM, replicates, listed as PU-HZ151, 0.00390625 µM", "value": "90.4471 and 81.5412"},
      {"measurement": "Cell viability (ATP levels)", "setting": "HepG2 cells (Pgp +ve); 7.8125 nM, replicates, listed as PU-HZ151, 0.0078125 µM", "value": "90.4471 and 73.8824"},
      {"measurement": "Cell viability (ATP levels)", "setting": "HepG2 cells (Pgp +ve); 15.625 nM, replicates, listed as PU-HZ151, 0.015625 µM", "value": "83.4588 and 82.6941"},
      {"measurement": "Cell viability (ATP levels)", "setting": "HepG2 cells (Pgp +ve); 31.25 nM, replicates, listed as PU-HZ151, 0.03125 µM", "value": "65.6706 and 60.9647"},
      {"measurement": "Cell viability (ATP levels)", "setting": "HepG2 cells (Pgp +ve); 62.5 nM, replicates, listed as PU-HZ151, 0.0625 µM", "value": "37.2471 and 23.6471"},
      {"measurement": "Cell viability (ATP levels)", "setting": "HepG2 cells (Pgp +ve); 125 nM, replicates, listed as PU-HZ151, 0.125 µM", "value": "13.5294 and 11.2118"},
      {"measurement": "Cell viability (ATP levels)", "setting": "HepG2 cells (Pgp +ve); 500 nM, replicates, listed as PU-HZ151, 0.5 µM", "value": "2.612 and 2.282"},
      {"measurement": "Cell viability (ATP levels)", "setting": "HepG2 cells (Pgp +ve); 1000 nM, replicates, listed as PU-HZ151, 1 µM", "value": 1.824},
      {"measurement": "viability at 0.00195312 µM", "setting": "HepG2 cells (Pgp +ve); Homo sapiens, HepG2, HEPG2, 1.95312 nM, replicates", "value": 99.4, "unit": "%"},
      {"measurement": "viability at 0.00390625 µM", "setting": "HepG2 cells (Pgp +ve); Homo sapiens, HepG2, HEPG2, 3.90625 nM, replicates", "value": 81.2, "unit": "%"},
      {"measurement": "viability at 0.0078125 µM", "setting": "HepG2 cells (Pgp +ve); Homo sapiens, HepG2, HEPG2, 7.8125 nM, replicates", "value": 79.7, "unit": "%"},
      {"measurement": "viability at 0.015625 µM", "setting": "HepG2 cells (Pgp +ve); Homo sapiens, HepG2, HEPG2, 15.625 nM, replicates", "value": 72.1, "unit": "%"},
      {"measurement": "viability at 0.03125 µM", "setting": "HepG2 cells (Pgp +ve); Homo sapiens, HepG2, HEPG2, 31.25 nM, replicates", "value": 70.3, "unit": "%"},
      {"measurement": "viability at 0.0625 µM", "setting": "HepG2 cells (Pgp +ve); Homo sapiens, HepG2, HEPG2, 62.5 nM, replicates", "value": 27.4, "unit": "%"},
      {"measurement": "viability at 0.125 µM", "setting": "HepG2 cells (Pgp +ve); Homo sapiens, HepG2, HEPG2, 125 nM, replicates", "value": 16.9, "unit": "%"},
      {"measurement": "viability at […]", "setting": "HepG2 cells (Pgp +ve); Homo sapiens, HepG2, HEPG2, 250 nM, replicates", "value": 2.72, "unit": "%"},
      {"measurement": "viability at 0.5 µM", "setting": "HepG2 cells (Pgp +ve); Homo sapiens, HepG2, HEPG2, 500 nM, replicates", "value": 1.86, "unit": "%"},
      {"measurement": "viability at 1 µM", "setting": "HepG2 cells (Pgp +ve); Homo sapiens, HepG2, HEPG2, 1000 nM, replicates", "value": 1.85, "unit": "%"},
      {"measurement": "% PU-HZ151 remaining", "setting": "CYP2C19; 15 min", "value": 59.2, "unit": "%"},
      {"measurement": "% PU-HZ151 remaining", "setting": "CYP2C19; 30 min", "value": 39.3, "unit": "%"},
      {"measurement": "% PU-HZ151 remaining", "setting": "CYP2C19; 60 min", "value": 20.2, "unit": "%"},
      {"measurement": "inhibition of PU-HZ151 metabolism", "setting": "CYP2C19; benzylnirvanol", "value": 4, "unit": "%"}
    ]}
  ]
}
